The values below come from patent US20230365566A1, “HETEROCYCLIC AMIDES AND THEIR USE FOR MODULATING SPLICING” (REMIX THERAPEUTICS INC., priority 2020, published 2023).

Assay type in all cases: cell-based
The subject of one test is HTT CJ mRNA. In words: Gene panel canonical junction qPCR assay, HTT. The note with it: protocol of Example 42, read-out: HTT IC50 (decrease in CJ mRNA levels). The procedure:
(§1) Compounds described herein were used to modulate RNA transcript abundance in cells. The expression of a target mRNA was measured by detecting the formation of an exon-exon junction in the canonical transcript (CJ). A compound mediated exon-inclusion event was detected by observing an increase in formation of a new junction with an alternative exon (AJ). Real-time qPCR assays were used to detect these splicing switches and interrogate the potency of various compounds towards different target genes. A high-throughput real time quantitative PCR (RT-qPCR) assay was developed to measure these two isoforms of the mRNA (CJ and AJ) for an exemplary gene, HTT, together with a control housekeeping gene, GAPDH or GUSB or PPIA, used for normalization. Briefly, the A673 or K562 cell line was treated with various compounds described herein (e.g., compounds of Formula (I)). After treatment, the levels of the HTT mRNA targets were determined from each sample of cell lysate by cDNA synthesis followed by qPCR.
(§2) The A673 cell line was cultured in DMEM with 10% FBS. Cells were diluted with full growth media and plated in a 96-well plate (15,000 cells in 100 ul media per well). The plate was incubated at 37° C. with 5% CO2 for 24 hours to allow cells to adhere. An 11-point 3-fold serial dilution of the compounds was made in DMSO then diluted in media in an intermediate plate. Compounds were transferred from the intermediate plate to the cell plate with the top dose at a final concentration of 10 uM in the well. Final DMSO concentration was kept at or below 0.25%. The cell plate was returned to the incubator at 37° C. with 5% CO2 for an additional 24 hours.
(§3) The K562 cell line was cultured in IMDM with 10% FBS. For K562, cells were diluted with full growth media and plated in either a 96-well plate (50,000 cells in 50 uL media per well) or a 384-well plate (8,000-40,000 cells in 45 uL media per well). An 11-point 3-fold serial dilution of the compounds were made in DMSO then diluted in media in an intermediate plate. Compound was transferred from the intermediate plate to the cell plate with the top dose at a final concentration of 10 uM in the well. Final DMSO concentration was kept at or below 0.25%. Final volume was 100 uL for 96-well plate and 50 uL for 384-well plate. The cell plate was then placed in an incubator at 37° C. with 5% CO2 for 24 hours.
(§4) The data analysis was performed by first determining the ACt vs the housekeeper gene. This ACt was then normalized against the DMSO control (AACt) and converted to RQ (relative quantification) using the 2^(−ΔΔCt) equation. The RQ were then converted to a percentage response by arbitrarily setting an assay window of 3.5 ΔCt for HTT-CJ and an assay window of 9 ΔCt for HTT-AJ. […] The percentage response was then fitted to the 4 parametric logistic equation to evaluate the concentration dependence of compound treatment. The increase in AJ mRNA is reported as AC50 (compound concentration having 50% response in AJ increase) while the decrease in CJ mRNA levels is reported as IC50 (compound concentration having 50% response in CJ decrease).
(§5) Additional studies were carried out for a larger panel of genes using the protocol provided above. The junction between flanking upstream and downstream exons was used to design canonical junction qPCR assays. At least one of the forward primer, reverse primer or the CY5-labeled 5′ nuclease probe (with 3′ quencher such as ZEN/Iowa Black FQ) was designed to overlap with the exon junction to capture the CJ mRNA transcript. BLAST was used to confirm the specificity of the probeset and parameters such as melting temperature, GC content, amplicon size, and primer dimer formation are considered during their design. Data for the decrease in CJ mRNA levels for three exemplary genes (HTT, SMN2, and Target C) analyzed in this panel are reported as IC50 (compound concentration having 50% response in CJ decrease).

Another test deals with Target C CJ mRNA. In words: Gene panel canonical junction qPCR assay, Target C. The following applies: protocol of Example 42, read-out: Target C IC50 (decrease in CJ mRNA levels). The procedure:
as §1, §2, §3, §4, §5

The test system of test [1] is HTT mRNA canonical junction (CJ). In words: Splicing RT-qPCR assay, decrease of HTT canonical junction (CJ) mRNA. The note with it: A673 or K562 cells, 24 hours compound treatment, concentration having 50% response in CJ decrease. The procedure:
as §1, §2, §3
(§6) The cells were then gently washed with 50 uL-100 uL cold PBS before proceeding to addition of lysis buffer. 30 uL-50 uL of room temperature lysis buffer with DNAse I (and optionally RNAsin) was added to each well. Cells were shaken/mixed thoroughly at room temperature for 5-10 minutes for lysis to take place and then 3 uL-5 uL of room temperature stop solution was added and wells were shaken/mixed again. After 2-5 minutes, the cell lysate plate was transferred to ice for RT-qPCR reaction setup. The lysates could also be frozen at −80° C. for later use.
(§7) In some cases, a direct lysis buffer was used. An appropriate volume of 3× lysis buffer (10 mM Tris, 150 mM NaCl, 1.5%-2.5% Igepal and 0.1-1 U/uL RNAsin, pH 7.4) was directly added to either K562 or A673 cells in media and mixed by pipetting 3 times. The plates were then incubated at room temperature with shaking/rocking for 20-50 minutes to allow for lysis to take place. After this time, the cell lysate plate was transferred to ice to set up for the RT-qPCR reactions. The lysates could also be frozen at −80° C. for later use.
(§8) To set up 10 uL RT-qPCR reactions, cell lysates were transferred to 384-well qPCR plates containing the master mix according to the table below. The plates were sealed, gently vortexed, and spun down before the run. The volumes were adjusted accordingly in some instances where the reaction was carried in 20 uL. The table below summarizes the components of the RT-qPCR reactions:
(§9) The RT-qPCR reaction was performed using a QuantStudio (ThermoFisher) under the following fast cycling conditions. […]

In the next test the test system is SMN2 CJ mRNA. In words: Gene panel canonical junction qPCR assay, SMN2. The following applies: protocol of Example 42, read-out: SMN2 IC50 (decrease in CJ mRNA levels). The procedure: as §1, §2, §3, §4, §5
On the technique in general: In qPCR the cycle at which signal appears reflects the starting amount.

Test [2] concerns HTT mRNA alternative junction (AJ). In words: Splicing RT-qPCR assay, increase of HTT alternative junction (AJ) mRNA. The note with it: A673 or K562 cells, 24 hours compound treatment, concentration having 50% response in AJ increase. The procedure: as §1, §2, §3, §6, §7, §8, §9

pIC50: −log10 of the molar value. Some results are limits rather than exact numbers.

As to `Cc1cn2cc(NC(=O)c3ccc(C4CCNCC4)c4oc(C)nc34)cc(F)c2n1` [Compound 187, N-[8-fluoro-2-methylimidazo[1,2-a]pyridin-6-yl]-2-methyl-7-(piperidin-4-yl)-1,3-benzoxazole-4-carboxamide], the values for the pIC50 with HTT CJ mRNA, in the test on Target C CJ mRNA and with SMN2 CJ mRNA were 6.00 to 7.00, 6.00 to 7.00 and above 7.00, respectively. Also, the AC50 in test [1] and in test [2] was 0.1 to 1 µM throughout.
In the case of `Cc1cn2cc(NC(=O)c3ccc(C4CCNCC4)c4c3OCC4)cc(F)c2n1` [Compound 188, N-[8-fluoro-2-methylimidazo[1,2-a]pyridin-6-yl]-4-(piperidin-4-yl)-2,3-dihydro-1-benzofuran-7-carboxamide], the pIC50 with HTT CJ mRNA was below 5.00; in the test with Target C CJ mRNA, 5.00 to 6.00; in the test with SMN2 CJ mRNA, 6.00 to 7.00. The AC50 in test [1] and in test [2] was above 10 µM throughout.
As to `Cc1cn2cc(NC(=O)c3ccc(N4CCN(C)CC4)c4cc(C)oc34)cc(F)c2n1` [Compound 189, N-[8-fluoro-2-methylimidazo [1,2-a]pyridin-6-yl]-2-methyl-4-(4-methylpiperazin-1-yl)-1-benzofuran-7-carboxamide], the pIC50 with HTT CJ mRNA is 5.00 to 6.00; with Target C CJ mRNA, 5.00 to 6.00; in the test with SMN2 CJ mRNA, above 7.00. Further, the AC50 in test [1] and in test [2] was 1 to 10 µM throughout.
Take `Cc1cn2cc(NC(=O)c3ccc(N4CCNC(C)C4)c4cc(C)oc34)cc(F)c2n1` (stereo not drawn) [Compound 190, N-{8-fluoro-2-methylimidazo[1,2-a]pyridin-6-yl}-2-methyl-4-(3-methylpiperazin-1-yl)-1-benzofuran-7-carboxamide]: the values for the pIC50 with HTT CJ mRNA, in the test on Target C CJ mRNA and with SMN2 CJ mRNA were 5.00 to 6.00, 5.00 to 6.00 and 6.00 to 7.00, respectively. Besides, the AC50 in test [1] and in test [2] was 1 to 10 µM throughout.
As to `Cc1cn2cc(NC(=O)c3ccc(N4CCN(C)C(C)C4)c4cc(C)oc34)cc(F)c2n1` (stereo not drawn) [Compound 191], the pIC50 with HTT CJ mRNA is 6.00 to 7.00; in the test on Target C CJ mRNA it was 5.00 to 6.00; in the test on SMN2 CJ mRNA, above 7.00. Also, the AC50 in test [1] is 0.1 to 1 µM; in test [2] it was 1 to 10 µM.
The corresponding values for `Cc1cn2cc(NC(=O)c3ccc(N4CCNC(C)(C)C4)c4cc(C)oc34)cc(F)c2n1` [Compound 193] are 5.00 to 6.00, below 5.00, above 7.00, 1 to 10 µM and 1 to 10 µM.
Turning to `Cc1cn2cc(NC(=O)c3ccc(N4CCNC5(CC5)C4)c4cc(C)oc34)cc(F)c2n1` [Compound 194], the pIC50 with HTT CJ mRNA is 5.00 to 6.00; with Target C CJ mRNA, below 5.00; in the test with SMN2 CJ mRNA, above 7.00. The AC50 in test [1] and in test [2] was 1 to 10 µM each time.
As to `CCNC1CCN(c2ccc(C(=O)Nc3cc(F)c4nc(C)cn4c3)c3oc(C)cc23)CC1` [Compound 196, 4-[4-(ethylamino)piperidin-1-yl]-N-[8-fluoro-2-methylimidazo[1,2-a]pyridin-6-yl]-2-methyl-1-benzofuran-7-carboxamide], the results for the pIC50 with HTT CJ mRNA, with Target C CJ mRNA and with SMN2 CJ mRNA were 5.00 to 6.00, 5.00 to 6.00 and above 7.00, respectively. In addition, the AC50 in test [1] and in test [2] was 1 to 10 µM throughout.
On to `Cc1cn2cc(NC(=O)c3ccc(N4CCC(NC(C)(C)C)CC4)c4cc(C)oc34)cc(F)c2n1` [Compound 197, 4-[4-(tert-butylamino)piperidin-1-yl]-N-[8-fluoro-2-methylimidazo[1,2-a]pyridin-6-yl]-2-methyl-1-benzofuran-7-carboxamide], for which the pIC50 with HTT CJ mRNA is below 5.00; in the test on Target C CJ mRNA, below 5.00; in the test on SMN2 CJ mRNA it was 6.00 to 7.00. For the same compound, the concentration at half-maximal activity (AC50) in test [1] and in test [2] was above 10 µM throughout.
For `Cc1cn2cc(NC(=O)c3ccc(N4CCC(N(C)C)CC4)c4cc(C)oc34)cc(F)c2n1` [Compound 198, 4-[4-(dimethylamino)piperidin-1-yl]-N-[8-fluoro-2-methylimidazo[1,2-a]pyridin-6-yl]-2-methyl-1-benzofuran-7-carboxamide], the pIC50 with HTT CJ mRNA is 6.00 to 7.00; with Target C CJ mRNA it was 5.00 to 6.00; with SMN2 CJ mRNA, above 7.00. In addition, the half-maximal activity concentration (AC50) lay within 0.1 to 1 µM in test [1] and 1 to 10 µM in test [2].
Take `Cc1cn2cc(NC(=O)c3ccc(N4CCN5CCCC5C4)c4cc(C)oc34)cc(F)c2n1` (stereo not drawn) [Compound 199, N-[8-fluoro-2-methylimidazo[1,2-a]pyridin-6-yl]-4-[hexahydro-1H-pyrrolo[1,2-a]pyrazin-2-yl]-2-methyl-1-benzofuran-7-carboxamide]: the pIC50 was 6.00 to 7.00 in the test on HTT CJ mRNA, 5.00 to 6.00 in the test with Target C CJ mRNA and above 7.00 with SMN2 CJ mRNA. Moreover, the AC50 in test [1] and in test [2] was 0.1 to 1 µM in each case.
As to `Cc1cn2cc(NC(=O)c3ccc(N(C)C4CCN(C)CC4)c4cc(C)oc34)cc(F)c2n1` [Compound 200], the pIC50 with HTT CJ mRNA was 5.00 to 6.00; in the test on Target C CJ mRNA it was 5.00 to 6.00; with SMN2 CJ mRNA, above 7.00. The AC50 in test [1] and in test [2] was 1 to 10 µM each time.
Regarding `Cc1cn2cc(NC(=O)c3ccc(N(C)C4CC(C)(C)NC(C)(C)C4)c4cc(C)oc34)cc(F)c2n1` [Compound 201], the pIC50 with HTT CJ mRNA is below 5.00; in the test with Target C CJ mRNA, below 5.00; in the test on SMN2 CJ mRNA it was 5.00 to 6.00. For the same compound, the AC50 in test [1] and in test [2] was above 10 µM in each case.
On to `Cc1cn2cc(NC(=O)c3ccc(N4CCC(N(C)C)C4)c4cc(C)oc34)cc(F)c2n1` (stereo not drawn) [Compound 202], for which the values for the pIC50 in the test on HTT CJ mRNA, with Target C CJ mRNA and in the test with SMN2 CJ mRNA were below 5.00, below 5.00 and above 7.00, respectively. For the same compound, the AC50 in test [1] is above 10 µM; in test [2] it was 1 to 10 µM.
For the compound `Cc1cn2cc(NC(=O)c3ccc(N4CCC(NC(C)(C)C)C4)c4cc(C)oc34)cc(F)c2n1` (stereo not drawn) [Compound 203, 4-[3-(tert-butylamino)pyrrolidin-1-yl]-N-[8-fluoro-2-methylimidazo[1,2-a]pyridin-6-yl]-2-methyl-1-benzofuran-7-carboxamide], the pIC50 in the test with HTT CJ mRNA is 5.00 to 6.00; in the test with Target C CJ mRNA it was 5.00 to 6.00; in the test with SMN2 CJ mRNA, 6.00 to 7.00. The AC50 in test [1] and in test [2] was 1 to 10 µM in each case.

Broadly, the pIC50 is the negative decadic logarithm of the IC50, by convention in mol/L. By AC50 is commonly meant the concentration giving half of the maximal activity seen. Low values mean greater potency, high ones weaker potency.
